# Assay results reported in patent US20060141027A1, “Sublingual administration of non-steroidal anti-inflammatory pharmacological substances” (priority 2003, published 2006).
# Assay: experimentation on patients: sublingual versus traditional oral administration of FANS
# Type: in vivo
# Conditions: sublingual administration compared with oral formulation of the same agent
# From the text: In the performed experimentation, the used sublingual preparations consisted of tablets which can be separated in two parts.
row,SMILES,therapeutic dose necessary for obtaining the desired anti-inflammatory effect
1,O=C(O)Cc1ccccc1Nc1c(Cl)cccc1Cl [diclofenac],reduction of the therapeutic dosage
2,CC(C)Cc1ccc(C(C)C(=O)O)cc1 (centres unmarked) [ibuprofen],reduction of the therapeutic dosage
3,"CS(=O)(=O)Nc1ccc([N+](=O)[O-])cc1Oc1ccccc1 [nimesulid, nimesulide]",reduction of the therapeutic dosage
4,CC(=O)Nc1ccc(O)cc1 [paracetamol],reduction of the therapeutic dosage
5,CC(C(=O)O)c1cccc(C(=O)c2ccccc2)c1 (centres unmarked) [ketoprofen],reduction of the therapeutic dosage
